Measurements: patent US10358453B2, “Antiviral compounds” (priority 2015, dated 2019)
Where two headings read alike, the source gives them in different places.

What was measured:
[1] = tested on: RSV subgenomic replicon 395 HeLa and APC126; test: RSV subgenomic replicon assay (Renilla luciferase); format: cell-based; details: human respiratory syncytial virus; RSV replicon cells (395 HeLa 7 days or APC126 3 days); Table G = less than 1 μM, Table H = equal to or higher than 1 μM and less than 50 μM
Description: The RSV subgenomic replicon 395 HeLa and APC126 were licensed from Apath (Brooklyn, N.Y.) and were originally developed by Dr. Mark Meeples of Center for Vaccines & Immunity, the Research Institute at Nationwide Children's Hospital in Columbus, Ohio. To generate subgenomic RSV replicon, three glycoprotein genes, those for SH, G, and F, from a full-length recombinant GFP-expressing (rg) RSV antigenomic cDNA were deleted. In their place, a blasticidin S deaminase (bsd) gene was inserted. Through multiple steps, the RSV replicon was established in HeLa cells (395 Hela) or BHK cells (APC126). Both 395 HeLa and APC126 cells were cultured in Dulbecco's Modified Eagle Medium (DMEM) containing 4500 mg/L D-glucose, L-glutamine, and 110 mg/L sodium pyruvate (Invitrogen, Cat. #11995-040). The medium was further supplemented with 10% (v/v) fetal bovine serum (FBS) (Mediatech, Cat. #35-010-CV), 1% (v/v) penicillin/streptomycin (Mediatech, Cat. #30-002-CI), and 10 μg/mL of Blasticidin (BSD) (Invivogen, Cat. code ant-bl-1). Cells were maintained at 37° C. in a humidified 5% CO2 atmosphere.
Determination of 50% inhibitory concentration (EC50), 90% inhibitory concentration (EC90) and 50% cytotoxic concentration (CC50) in RSV replicon cells were performed by the following procedure. On the first day, 5000 RSV replicon cells per well were plated in a 96-well plate. On the following day, compounds to be tested were solubilized in 100% DMSO to 100X the desired final testing concentration. Each compound was serially diluted (1:3) up to 9 distinct concentrations. Compounds in 100% DMSO were reduced to 10% (v/v) DMSO by diluting 1:10 in cell culture media. A 10 μL sample of the compounds diluted to 10% (v/v) DMSO with cell culture media was used to treat the RSV replicon cells in 96-well format. The final DMSO concentration was 1% (v/v). Cells were incubated with compounds for 7 days (for 395Hela) or 3 days (for APC126) at 37° C. in a 5% CO2 atmosphere. In each assay, positive control that was previously characterized in the RSV replicon assay was included.
The Renilla Luciferase Assay System (Promega, Cat. #E2820) was used to measure anti-RSV replicon activity. Assay plates were set up as stated above. Luminescence was recorded using a Perkin Elmer multilabel counter Victor3V. EC50, the concentration of the drug required for reducing RSV replicon RNA by 50% in relation to the untreated cell control value, was calculated from the plot of percentage reductions of the […] against the drug concentrations using the Microsoft Excel forecast function.

[2] = biological target: recombinant RSV complex (Human respiratory syncytial virus A, UniProt P28887); test: RSV polymerase inhibition assay; format: biochemical; details: 2 h at 30° C., Table E = <1 μM, Table F = <50 μM
Experimental: Standard RSV polymerase assays were conducted in the presence of 10 nM recombinant RSV complex in a reaction buffer containing Tris-HCl pH7.5, 6 mM MgCl2, and other additives and substrates including RNA oligonucleotides and radionucleotides. Standard reactions were incubated in 96-well plate format for 2 h at 30° C., in the presence of increasing concentration of inhibitor. The reaction was stopped with 90 μL of 0.1M EDTA, and the reaction product was transferred to a “reading” 96-well plate. After washing of the plate, radiolabeled RNA products were detected according to standard procedures with a Trilux Topcount scintillation counter. The compound concentration at which the enzyme-catalyzed rate was reduced by 50% (IC50) was calculated by fitting the data to a non-linear regression (sigmoidal).

[3] = Cytotoxicity determination (CCK-8, without addition of virus); format: cell-based; details: human, HEp-2 cells (uninfected), no virus, Table C = greater than 100 μM, Table D = equal to or less than 100 μM and greater than 10 μM
Experimental: CPE reduction assays are performed as described by Sidwell and Huffman et al., Appl. Microbiol. (1971) 22(5):797-801 with slight modifications. HEp-2 cells (ATCC#, CCL-23) are seeded at a density of 1,500 cells/30 μL/well into the 384-well cell plate(s) (Corning#3701) one day prior to the assay. Compounds are added into 384-well cell plates by Labcyte POD 810 Plate Assembler system. Each of the test compounds is provided to duplicate wells of a 384-well cell plate at final concentrations starting from 100 μM or 1 μM using 1/3 stepwise dilutions for 9 points. Quick-thaw Respiratory Syncytial Virus (RSV) long strain (ATCC#VR-26) stock in a 37° C. water bath. Place on ice until ready to use. Viruses are diluted to the concentration of 100 TCID50/30 μL with medium and 30 μl diluted RSV are added into related wells of 384-well cell plates. For each plate, sixteen wells are set aside as uninfected, untreated cell controls (CC), and nine wells per test plate receive virus only as a control for virus replication (VC). The final DMSO concentration of all wells is 1%. Place the plates at 37° C., 5% CO2 for 5 days.
In order to determine the compound cytotoxicity, in parallel, each of the compounds is applied to duplicate wells in a 384-well cell plate at serial final concentrations starting from 100 μM using ½ stepwise dilutions for 7 points without addition of virus. Incubate the cells at 37° C., 5% CO2 for 5 days. Add 6 μL CCK-8 into each well and incubate in a CO2 incubator at 37° C. for 3-4 h. Read the plates to obtain the optical densities which are used to calculate 50% cytotoxicity concentration (CC50).

[4] = 10 nM recombinant RSV complex, read-out: IC50

Sequence of recombinant RSV complex (P28887 whole entry): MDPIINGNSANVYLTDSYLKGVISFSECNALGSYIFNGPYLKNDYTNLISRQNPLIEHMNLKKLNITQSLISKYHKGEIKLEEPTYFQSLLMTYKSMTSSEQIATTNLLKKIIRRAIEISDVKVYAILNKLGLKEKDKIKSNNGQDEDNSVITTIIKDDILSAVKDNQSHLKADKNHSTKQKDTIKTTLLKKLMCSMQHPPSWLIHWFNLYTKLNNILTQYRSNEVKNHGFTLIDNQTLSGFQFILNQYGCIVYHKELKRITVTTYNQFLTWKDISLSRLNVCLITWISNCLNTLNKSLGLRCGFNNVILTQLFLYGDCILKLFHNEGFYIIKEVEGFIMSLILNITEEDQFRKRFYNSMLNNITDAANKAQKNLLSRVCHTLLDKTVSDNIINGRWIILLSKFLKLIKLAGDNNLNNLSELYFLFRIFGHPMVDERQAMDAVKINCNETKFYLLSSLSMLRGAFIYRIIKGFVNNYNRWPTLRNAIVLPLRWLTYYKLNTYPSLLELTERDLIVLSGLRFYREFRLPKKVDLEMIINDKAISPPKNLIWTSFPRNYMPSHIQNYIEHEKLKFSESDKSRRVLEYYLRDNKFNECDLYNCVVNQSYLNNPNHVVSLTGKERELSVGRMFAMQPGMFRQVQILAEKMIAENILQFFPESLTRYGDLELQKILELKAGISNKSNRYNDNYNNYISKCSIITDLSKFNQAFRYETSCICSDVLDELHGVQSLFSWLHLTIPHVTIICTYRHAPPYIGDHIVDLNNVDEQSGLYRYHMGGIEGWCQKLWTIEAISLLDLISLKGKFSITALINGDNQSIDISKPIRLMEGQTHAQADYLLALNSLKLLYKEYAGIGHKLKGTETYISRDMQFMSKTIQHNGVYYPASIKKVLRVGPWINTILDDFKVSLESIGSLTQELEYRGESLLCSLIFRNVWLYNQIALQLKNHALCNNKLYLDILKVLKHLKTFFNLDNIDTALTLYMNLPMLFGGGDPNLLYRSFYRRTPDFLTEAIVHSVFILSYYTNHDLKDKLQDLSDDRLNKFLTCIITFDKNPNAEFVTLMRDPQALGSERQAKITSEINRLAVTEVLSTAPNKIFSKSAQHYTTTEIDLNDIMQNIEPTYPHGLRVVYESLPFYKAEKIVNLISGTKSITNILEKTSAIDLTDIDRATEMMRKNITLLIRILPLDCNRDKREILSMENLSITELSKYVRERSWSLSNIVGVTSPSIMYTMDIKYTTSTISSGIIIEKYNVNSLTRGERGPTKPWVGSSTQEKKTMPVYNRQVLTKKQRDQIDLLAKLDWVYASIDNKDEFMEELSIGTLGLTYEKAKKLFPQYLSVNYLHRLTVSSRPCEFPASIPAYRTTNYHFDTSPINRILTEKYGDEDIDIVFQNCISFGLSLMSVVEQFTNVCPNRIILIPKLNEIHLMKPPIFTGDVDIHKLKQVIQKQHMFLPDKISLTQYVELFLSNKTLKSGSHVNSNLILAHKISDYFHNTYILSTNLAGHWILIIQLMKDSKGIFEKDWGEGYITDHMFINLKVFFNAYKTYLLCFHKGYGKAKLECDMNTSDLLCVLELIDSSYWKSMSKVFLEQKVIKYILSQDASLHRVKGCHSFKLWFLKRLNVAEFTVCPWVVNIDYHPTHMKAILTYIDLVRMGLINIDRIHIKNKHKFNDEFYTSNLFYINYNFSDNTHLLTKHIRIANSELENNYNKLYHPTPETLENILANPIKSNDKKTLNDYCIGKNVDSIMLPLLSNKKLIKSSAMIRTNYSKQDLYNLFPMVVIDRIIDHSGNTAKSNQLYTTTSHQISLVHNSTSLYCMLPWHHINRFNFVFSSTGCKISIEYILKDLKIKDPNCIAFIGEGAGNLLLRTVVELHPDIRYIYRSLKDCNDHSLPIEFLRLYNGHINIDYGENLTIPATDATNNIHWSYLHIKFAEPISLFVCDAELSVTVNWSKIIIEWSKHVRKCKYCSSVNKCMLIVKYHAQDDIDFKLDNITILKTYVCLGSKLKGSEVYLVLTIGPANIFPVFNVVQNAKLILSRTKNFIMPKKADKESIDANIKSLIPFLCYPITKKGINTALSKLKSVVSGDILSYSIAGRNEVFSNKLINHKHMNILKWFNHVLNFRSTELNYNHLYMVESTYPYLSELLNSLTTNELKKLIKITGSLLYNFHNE
Sequence of recombinant RSV complex (P03421 whole entry, further chain): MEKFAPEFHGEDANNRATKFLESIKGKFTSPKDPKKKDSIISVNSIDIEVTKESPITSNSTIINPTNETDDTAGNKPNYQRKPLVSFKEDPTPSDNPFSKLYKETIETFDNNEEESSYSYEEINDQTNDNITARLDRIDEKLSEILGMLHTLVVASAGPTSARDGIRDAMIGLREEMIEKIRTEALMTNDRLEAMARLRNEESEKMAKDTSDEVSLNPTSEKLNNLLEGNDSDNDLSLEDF

SMILES	EC50 [1]	IC50 [2, 4]	CC50 at 5 days [3]	IC50 ([2]; IC50, 10 nM recombinant RSV complex)
COc1cc(C(=O)NCC(O)(c2cc3c(c(-c4ccc(F)cc4)n2)OCCC3(C)N)C(F)(F)F)ccc1OCC(C)O (single isomer, unassigned) [Compound 86]	1 to 50 µM	< 1 µM	10 to 100 µM	–
COc1cc(C(=O)NC[C@](O)(c2cc3c(c(-c4ccc(F)cc4)n2)OCC[C@]3(C)N)C(F)(F)F)ccc1OC[C@@H](C)O (single isomer, unassigned) [Compound 87]	< 1 µM	< 1 µM	> 100 µM	–
COc1cc(C(=O)NC[C@@](O)(c2cc3c(c(-c4ccc(F)cc4)n2)OC[C@]3(N)C2CC2)C(F)(F)F)ccc1OC[C@@H](C)O (single isomer, unassigned) [Compound 106]	< 1 µM	< 1 µM	10 to 100 µM	–
COc1cc(C(=O)NC[C@](O)(c2cc3c(c(-c4ccc(F)cc4)n2)OC[C@]3(N)C2CC2)C(F)(F)F)ccc1OC[C@@H](C)O (single isomer, unassigned) [Compound 107]	1 to 50 µM	< 50 µM	10 to 100 µM	–
COc1cc(C(=O)NCC(O)(c2cc3c(c(-c4ccc(F)cc4)n2)OCC3(C)N)C(F)(F)F)cc2c1NC(=O)CC2 (stereo not drawn) [Compound 11]	< 1 µM	< 1 µM	10 to 100 µM	–
COc1cc(C(=O)NCC(O)(c2cc(C(C)CCN)cc(-c3ccc(F)cc3)n2)C(F)(F)F)ccc1OCCO (stereo not drawn) [Compound 13]	< 1 µM	< 1 µM	10 to 100 µM	–
C[C@@]1(N)COc2c1cc(C(O)(CNC(=O)c1ccc3[nH]ccc3c1)C(F)(F)F)nc2-c1ccc(F)cc1 (stereo partly drawn) [Compound 16]	< 1 µM	< 1 µM	10 to 100 µM	–
COc1cc(C(=O)NCC(O)(c2cc(C3CCNCC3)cc(-c3ccc(F)cc3)n2)C(F)(F)F)ccc1OCCO (stereo not drawn) [Compound 18]	< 1 µM	< 1 µM	10 to 100 µM	–
COc1cc(C(=O)NC[C@@](O)(c2cc3c(c(-c4ccc(F)cc4)n2)OC[C@@]3(C)N)C(F)(F)F)ccc1-c1nc(C)no1 [Compound 19]	< 1 µM	< 1 µM	10 to 100 µM	–
COc1cnc(C(=O)NCC(O)(c2cc3c(c(-c4ccc(F)cc4)n2)OCC3(C)N)C(F)(F)F)cc1OC (stereo not drawn) [Compound 20]	< 1 µM	< 1 µM	10 to 100 µM	–
COc1cc(C(=O)NCC(O)(c2cc3c(c(-c4ccc(F)cc4)n2)OCC3(C)N)C(F)(F)F)ccc1OC(C)CO (stereo not drawn) [Compound 21]	< 1 µM	< 1 µM	10 to 100 µM	–
CC1(N)COc2c1cc(C(O)(CNC(=O)c1ccc(CO)c(OC3CC3)c1)C(F)(F)F)nc2-c1ccc(F)cc1 (stereo not drawn) [Compound 22]	< 1 µM	< 1 µM	10 to 100 µM	–
COc1ccc(C(=O)NCC(O)(c2cc3c(c(-c4ccc(F)cc4)n2)OCC3(C)N)C(F)(F)F)cc1OC1CC1 (stereo not drawn) [Compound 23]	< 1 µM	< 1 µM	10 to 100 µM	–
CC1(N)COc2c1cc(C(O)(CNC(=O)c1ccc(OCCO)c(OC3CC3)c1)C(F)(F)F)nc2-c1ccc(F)cc1 (stereo not drawn) [Compound 24]	< 1 µM	< 1 µM	10 to 100 µM	–
COc1cc(C(=O)NCC(O)(c2cc3c(c(-c4ccncc4)n2)OCC3(C)N)C(F)(F)F)ccc1OCCO (stereo not drawn) [Compound 26]	1 to 50 µM	< 50 µM	> 100 µM	–
COc1cc(C(=O)NCC(O)(c2cc3c(c(-c4ccc(F)cc4)n2)OCC3(C)N)C(F)(F)F)ccc1NCCO (stereo not drawn) [Compound 30]	< 1 µM	< 1 µM	10 to 100 µM	–
COc1cc(C(=O)NCC(O)(c2cc3c(c(-c4ccc(F)cc4)n2)OCC3(C)N)C(F)(F)F)ccc1NC1CC1 (stereo not drawn) [Compound 31]	< 1 µM	< 1 µM	10 to 100 µM	–
CC(C)(N)c1cc(-c2ccc(F)cc2)nc(C(O)(CNC(=O)c2ccc(OCCO)c(OC3CC3)c2)C(F)(F)F)c1 (stereo not drawn) [Compound 34]	< 1 µM	< 1 µM	10 to 100 µM	–
CC(C)(N)c1cc(-c2ccc(F)cc2)nc(C(O)(CNC(=O)c2ccc(OC3CC3)c(OCCO)c2)C(F)(F)F)c1 (stereo not drawn) [Compound 36]	< 1 µM	< 1 µM	10 to 100 µM	–
COc1ccc(C(=O)NCC(O)(c2cc(C(C)(C)N)cc(-c3ccc(F)cc3)n2)C(F)(F)F)cc1OCCO (stereo not drawn) [Compound 37]	< 1 µM	< 1 µM	> 100 µM	–
C[C@@H](O)COc1cc(C(=O)NCC(O)(c2cc(C(C)(C)N)cc(-c3ccc(F)cc3)n2)C(F)(F)F)ccc1OC1CC1 (stereo partly drawn) [Compound 38]	< 1 µM	–	10 to 100 µM	< 1 µM
COc1ccc(C(=O)NCC(O)(c2cc(C(C)(C)N)cc(-c3ccc(F)cc3)n2)C(F)(F)F)cc1OC[C@@H](C)O (stereo partly drawn) [Compound 39]	< 1 µM	< 1 µM	10 to 100 µM	–
COc1cc(C(=O)NCC(N)(c2cc(C(C)(C)N)cc(-c3ccc(F)cc3)n2)C(F)(F)F)ccc1OCCO (stereo not drawn) [Compound 40]	< 1 µM	< 1 µM	> 100 µM	–
CC(C)(N)c1cc(-c2ccc(F)cc2)nc(C(N)(CNC(=O)c2ccc(OC3CC3)c(OCCO)c2)C(F)(F)F)c1 (stereo not drawn) [Compound 41]	< 1 µM	< 1 µM	10 to 100 µM	–
